Tested on: IL-1β, TNF-α and IL-6
Assay: Proinflammatory pain markers after CC SCI in mice
Assay type: in vivo, mouse
Conditions: oral gavage immediately after injury
Method: CC SCI was administered at the T7-T8 vertebral level after exposure of T6-T9 by laminectomy. The aneurysm clip applicator was oriented in a bilateral direction and an aneurysm clip with a closing force of 24 g was applied extradurally for 60 s, as described previously (A. S. Rivlin, C. H. Tator, Effect of duration of acute spinal cord compression in a new acute cord injury model in the rat. Surg Neurol 10, 38-43 (1978):E. Esposito, I. Paterniti, E. Mazzon, T. Genovese, M. Galuppo, R. Meli, P. Bramanti, S. Cuzzocrea, MK801 attenuates secondary injury in a mouse experimental compression model of spinal cord trauma. BMC Neurosci 12, 31 (2011)).
The urinary bladders were manually emptied twice daily until bladder function was regained. Adult male C57BL6 mice (25-30 g) (Charles River, Margate, UK) were randomly allocated to either: (1), Sham (control; laminectomy but no CC SCI); (2), CC SCI+vehicle; (3), CC SCI+200 mg/kg AZD1236 (oral); (4), CC SCI+5 mg/kg AZD1236 (it). All experiments were performed with n=6 mice/group and repeated on 3 independent occasions (total=18 mice/group/test).
The lesion site+5 mm either side (DC and CC SCI, n=6 mice/rats/group, 2 independent repeats (total n=12 mice/rats/group)) was dissected and rapidly frozen in liquid N2 and stored at −80° C. until required. […] The levels of mRNA of MMP-9, MMP-12, IL-1β, TNF-α and IL-6 were determined using pre-validated mouse primer sequences from complimentary DNA prepared from extracted mRNA and qRT-PCR was performed using a LightCycler PCR machine (Roche, Burgess Hill, UK) (M. L. Read, S. Mir, R. Spice, R. J. Seabright, E. L. Suggate, Z. Ahmed, M. Berry, A. Logan, Profiling RNA interference (RNAi)-mediated toxicity in neural cultures for effective short interfering RNA design. J Gene Med 11, 523-534 (2009)). […] Fold changes were computed using the ΔΔCt method (M. L. Read, S. Mir, R. Spice, R. J. Seabright, E. L. Suggate, Z. Ahmed, M. Berry, A. Logan, Profiling RNA interference (RNAi)-mediated toxicity in neural cultures for effective short interfering RNA design. J Gene Med 11, 523-534 (2009).

Question: Which “proinflammatory pain markers after CC injury, comparison with pain medications (FIG. 7)” value does the source give for `C[C@]1(CS(=O)(=O)N2CC=C(C#Cc3cnc(C4CC4)nc3)CC2)NC(=O)NC1=O` [AZD1236] here?
Answer: Its value is “significantly attenuates”.

— US20230255943A1, “MMP-9 AND MMP-12 INHIBITION FOR TREATING SPINAL CORD INJURY OR RELATED INJURY TO NEUROLOGICAL TISSUE” (The University of Birmingham, priority 2020, published 2023)
